Data on three compounds can be found in US20250188080A1, “IMIDAZOLONYLQUINOLINE COMPOUNDS AND THERAPEUTIC USES THEREOF” (Merck Patent GmbH, priority 2019, published 2025).

Broadly, the IC50 is the concentration at which inhibition is half-maximal. In general, microsomal CLint refers to the capacity of the preparation to metabolise the compound, expressed as a volume cleared per time.

For series [1], the system named is pCHK2 (Cellular mechanistic ATM, HCT-116). The series can be described thus: Cellular pCHK2 assay (bleomycin-induced phospho-Thr68 CHK2). In kind it is cell-based, human. The text has this: For the identification of substances which inhibit the phosphorylation of the protein kinase CHK2 (checkpoint kinase 2) at the amino acid threonine 68, an immunofluorescence-based “high content” analysis assay was used in HCT116 cells. In vitro cell-based immunofluorescence assay for the identification of inhibitors of bleomycin-induced phosphorylation of CHK2 (phospho-Thr68) in the human colon carcinoma cell line HCT116: HCT116 cells are sown out in a defined cell density in 384-well plates in culture medium (DMEM high glucose, 2 mM GlutaMax, 1 mM Na pyruvate, 10% FCS) and incubated overnight at 37° C. and 10% of CO2. On the following day, the test substances are added in a defined concentration range (1 nM to 30 μM) in combination with 10 μM bleomycin, where the concentration of the solvent DMSO is kept constant at 0.5%. After incubation for four hours at 37° C. and 10% of CO2, the cells are fixed (5 min, 4% formaldehyde in PBS), permeabilised (10 min, 0.2% Triton X-100 in PBS) and, after blocking of nonspecific binding sites (10% goat serum, 1% BSA in PBS), incubated overnight at 4° C. with a specific anti-pCHK2 antibody (cell signaling #2661). pCHK2 (Thr68) is determined using an Alexa488-labelled secondary anti-rabbit IgG antibody. Parallel staining of DNA with propidium iodide enables determination of the cell count. The pCHK2 signal is detected using a high-content imager (Molecular Devices IMX Ultra) and automatic image analysis using the MetaXpress software belonging to the instrument. The number of cell nuclei which have a pCHK2 signal above a defined background is determined.

Series [2] concerns the target T1, human phosphodiesterase-4A1A (Homo sapiens, UniProt P27815).
T1 construct: purchased Cerep 4074; host or cells: Sf9 cells
In words: PDE4A1A assay (Cerep). In kind it is biochemical. The method, then:
A commercially available assay of Cerep was used (Catalog ref. 4074; SOP no 1C1056), which is designed to evaluate the effects of compounds on the activity of the human phosphodiesterase-4A1A quantified by measuring the formation of 5′AMP from cAMP using a human recombinant enzyme expressed in Sf9 cells.
The test compound, reference compound or water (control) are added to a buffer containing 40 mM Tris/HCl (pH 7.4) and 8 mM MgCl2, 450 nM cAMP and 0.25 μCi [^3H]cAMP.
Thereafter, the reaction is initiated by addition of the enzyme (about 10 U) and the mixture is incubated for 20 min at 22° C.
For basal control measurements, the enzyme is omitted from the reaction mixture.
Following incubation SPA beads are added.
After 30 min at 22° C. under shaking, the amount of [^3H]5′AMP is quantified with a scintillation counter (Topcount, Packard).
The results are expressed as a percent inhibition of the control enzyme activity.
The standard inhibitory reference compound is Ro 20-1724, which is tested in each experiment at several concentrations to obtain an inhibition curve from which its IC50 value is calculated.

The nature of series [3]: Microsomal stability (intrinsic clearance), human. In kind it is in vitro ADME. The following applies: for microsomal CLint: liver microsomes, pH 7.4. The arrangement: microsomal CLint: dose or concentration left out as unconfirmed. The text has this: (§1) A microsomal stability assay is used to measure in vitro clearance (Clint). The assay involves measuring the rate of disappearance of a compound due to its intrinsic attitude to be metabolized (“intrinsic” meaning that the disappearance is not affected by other properties like permeability, binding etc. that play a role when quantifying in vivo clearance). The microsomal stability (intrinsic clearance, Clint) and, thus, metabolic stability is generally given as μl/min/mg protein. It can be visualized as the volume of solution that 1 mg of microsomes is able to clear of the compound in one minute.
(§2) A Tecan Genesis workstation (RSP 150/8) was used for to perform the microsomal incubations. Analysis was carried out using a Waters ACQUITY UPLC system coupled to an ABSciex API3000 mass spectrometer. Data analysis was performed using Assay Explorer (Symyx).
(§3) • Potassium phosphate buffer: 0.05 M potassium phosphate buffer pH 7.4 containing 1 mM MgCl2 • NADPH (nicotinamide adenine dinucleotide phosphate): 22.5 mg NADPH-Na4 in 1.8 ml potassium phosphate buffer • Acetonitrile: 50 Vol % acetonitrile (1 volume acetonitrile, 1 volume water) • DMSO: 20 Vol % DMSO in water • Stock solution of 20 mg/ml human or mouse liver microsomes (protein)/ml in phosphate buffer • Stock solution of 10 mM compound in 100% DMSO
(§4) Dilution of test compounds was done in 2 steps starting from a 10 mM stock solution of the respective compound in 100% DMSO. First 4 μl stock solution was added to 196 μl of 20 Vol % DMSO. In a second step, 10 μl of the first dilution were added to 1590 μl potassium phosphate buffer to achieve a final concentration of 1.25 μM in the final compound dilution. Thus, the amount of organic solvent in the assay was kept to a minimum (<1%).
(§5) The human or mouse liver microsome (protein) solution to be used in the assay was prepared by mixing 750 μl stock solution (20 mg/ml) and 2250 μl potassium phosphate buffer to a final concentration of 5 mg/ml.
(§6) Incubation was carried out on a 96 deep well incubation plate. […]

Series [4] is described as follows: Microsomal stability (intrinsic clearance), mouse. In kind it is in vitro ADME. Further details: microsomal CLint: dose or concentration left out as unconfirmed. To be noted: for CLint (mouse): mouse microsomes.
Source text: as §1, §2, §3, §4, §5, §6

T1 sequence (P27815 1-647 isoform P27815-4): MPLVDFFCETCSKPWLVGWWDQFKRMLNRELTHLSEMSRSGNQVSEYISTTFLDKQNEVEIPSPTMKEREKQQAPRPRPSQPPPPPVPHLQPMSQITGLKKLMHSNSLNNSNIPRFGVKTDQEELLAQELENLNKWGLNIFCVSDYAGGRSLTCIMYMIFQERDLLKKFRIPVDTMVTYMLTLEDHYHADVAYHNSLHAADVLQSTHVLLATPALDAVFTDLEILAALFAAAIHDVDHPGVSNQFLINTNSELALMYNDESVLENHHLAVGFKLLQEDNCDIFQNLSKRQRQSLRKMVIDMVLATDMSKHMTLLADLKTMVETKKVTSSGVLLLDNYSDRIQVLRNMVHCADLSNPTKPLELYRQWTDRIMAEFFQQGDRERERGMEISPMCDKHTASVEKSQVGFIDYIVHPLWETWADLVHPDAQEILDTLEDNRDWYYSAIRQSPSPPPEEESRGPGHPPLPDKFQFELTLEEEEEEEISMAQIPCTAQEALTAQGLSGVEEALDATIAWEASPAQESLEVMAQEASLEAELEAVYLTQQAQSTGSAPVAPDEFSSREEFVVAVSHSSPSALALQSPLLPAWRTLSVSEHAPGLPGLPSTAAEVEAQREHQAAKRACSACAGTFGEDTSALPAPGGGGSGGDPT

As to `COc1cc2ncc3c(c2cc1-c1cn(C)nc1C)n(-c1c(F)cncc1OC)c(=O)n3C` (single isomer, unassigned) [Compound 2, 8-(1,3-Dimethyl-1H-pyrazol-4-yl)-1-(Ra)-(3-fluoro-5-methoxy-pyridin-4-yl)-7-methoxy-3-methyl-1,3-dihydro-imidazo[4,5-c]quinolin-2-one], the IC50 came to 76 nM in series [1] (HCT-116, 10 μM bleomycin) and 930 nM in series [2]. In addition, the “CLint (human)” value in series [3] (human microsomes) is given as less than 10 μl/min/mg protein. Besides, the “CLint (mouse)” value in series [4] is on record as 103 μl/min/mg protein.
In the case of `COc1cc2ncc3c(c2cc1-c1cn(C)nc1C)n(-c1c(F)cncc1OC)c(=O)n3C` (single isomer, unassigned) [Compound 1, 8-(1,3-Dimethyl-1H-pyrazol-4-yl)-1-(Sa)-(3-fluoro-5-methoxy-pyridin-4-yl)-7-methoxy-3-methyl-1,3-dihydro-imidazo[4,5-c]quinolin-2-one], the IC50 in series [1] (HCT-116, 10 μM bleomycin) turned out to be 13 nM; in series [2] it was 5200 nM. The compound also came in with a microsomal CLint in series [3] of less than 10 µL/min/mg. For the same compound, in series [4], the “CLint (mouse)” value was found to be 22 μl/min/mg protein.
Turning to `COc1cc2ncc3c(c2cc1-c1cn(C)nc1C)n(-c1c(F)cncc1OC)c(=O)n3C` [Compound Y, 8-(1,3-dimethyl-1H-pyrazol-4-yl)-1-(3-fluoro-5-methoxypyridin-4-yl)-7-methoxy-3-methyl-1,3-dihydroimidazo[4,5-c]quinolin-2-one, reference compound], the IC50 amounted to 86 nM in series [1] (Homo sapiens, HCT-116, HCT-116, 10 μM bleomycin) and 1100 nM in series [2]. For the same compound, the microsomal CLint in series [3] stood at 19 µL/min/mg; in series [4] (mouse, liver microsomes, pH 7.4, mouse microsomes), 61 µL/min/mg.
